Measured values published in patent publication US20220017516A1, “LOX INHIBITORS” (THE INSTITUTE OF CANCER RESEARCH: ROYAL CANCER HOSPITAL, priority 2018, published 2022).
Positions count from the first letter of the chain named. Where two headings read alike, the source gives them in different places.

Legend:
LOX [1] = molecular target: T1, LOX (Mus musculus, UniProt P28301); experiment: LOX activity in cysts assay (roGFP2 LOX biosensor in MDCK cysts); format: cell-based; conditions: LOX; for inhibition at 2.5 µM: read-out: Cyst LOX (% inhibition) @ 2.5 uM
T1 construct: Full length LOX cDNA was then PCR cloned into pEGFP-N1 (Clonetech), or biosensor vector proGFP2—N1; expressed in transfected cells; host or cells: MDCK cells grown as cysts on Matrigel
T1 sequence (P28301 163-411): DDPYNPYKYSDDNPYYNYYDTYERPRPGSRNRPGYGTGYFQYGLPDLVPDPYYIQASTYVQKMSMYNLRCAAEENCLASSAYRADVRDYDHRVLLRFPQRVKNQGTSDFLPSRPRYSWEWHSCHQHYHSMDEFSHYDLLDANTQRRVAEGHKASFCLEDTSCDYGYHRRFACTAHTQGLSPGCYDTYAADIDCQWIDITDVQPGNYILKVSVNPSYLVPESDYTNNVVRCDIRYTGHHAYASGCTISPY
Protocol: All cell lines used in this study were purchased from American Type Culture Collection (ATCC). Mycoplasma contamination was routinely monitored by PCR. Cells used were not found to be Mycoplasma positive. MDCK cell lines were cultured in Dulbecco's Modified Eagle Medium (DMEM) supplemented with 10% fetal bovine serum (FBS) and 1% Penicillin Streptomycin solution (Pen Strep). For GFP constructs transfection in MDCK cells, lipofectamine 3000 was used according to manufactures protocols. Cells were either selected with G418 (Life Technologies) at 5 mg/ml. All cell culture reagents were purchased from Life Technologies.
To produce MDCK cysts, cells were cultured on Matrigel (Corning) with 2% Matrigel supplemented in DMEM with 10% FBS. Cysts were allowed to form for 10 days before subsequent studies.
Mouse LOX cDNA was purchased from OriGene. Full length LOX cDNA was then PCR cloned into pEGFP-N1 (Clonetech), or biosensor vector proGFP2—N1 (Hanson, 2004) using the following primers, […] (forward primer) and […] (reverse primer). For the insertion into pEGFP-N1 or proGFP2—N1, Nhel and Xhol restriction sites were added to forward and reverse primers accordingly. Mutant LOX constructs were made using QuickChange II site-directed mutagenesis kit (Agilent Technologies) following manufacture's protocol using LOX-GFP as template. To generate, roGFP2 versions of LOX mutant constructs, LOX mutant cDNA was transferred from pEGFP-N1 to proGFP2—N1 using Nhel and Xhol.
All photomicrographs were taken with a Leica TCS SP8 X confocal system. For LOX biosensor imaging, live MDCK cysts were used. The oxidised biosensor was excited using a 405 nm laser, while the reduced biosensor was excited with a 488 nm laser. Emission of the biosensor was recorded at 500 nm-530 nm range using sequential scans. Ratio images were generated following a published protocol {Kardash, 2011 #376}. Note, while the published protocol generates YFP/CFP ratio images, we used it to generate Oxidised/Reduced (roGFP2 ratio) ratio images. The roGFP2 ratio at the basal surface of MDCK cysts was used to indicate LOX inhibition. LOX inhibitors were added 30 min prior to imaging.
For clarity, readout for DMSO treated cysts represents 0% inhibition (no inhibition) and readout for BAPN at 1 mM is used as 100% inhibition (full inhibition).

LOXL2 = molecular target: T2, LOXL2 (Homo sapiens, UniProt Q9Y4K0); experiment: LOX isoform activity assay (ROS Glo), LOXL2; format: biochemical
T2 construct: purchased R&D Systems/Bio-techne
T2 sequence (Q9Y4K0 26-774): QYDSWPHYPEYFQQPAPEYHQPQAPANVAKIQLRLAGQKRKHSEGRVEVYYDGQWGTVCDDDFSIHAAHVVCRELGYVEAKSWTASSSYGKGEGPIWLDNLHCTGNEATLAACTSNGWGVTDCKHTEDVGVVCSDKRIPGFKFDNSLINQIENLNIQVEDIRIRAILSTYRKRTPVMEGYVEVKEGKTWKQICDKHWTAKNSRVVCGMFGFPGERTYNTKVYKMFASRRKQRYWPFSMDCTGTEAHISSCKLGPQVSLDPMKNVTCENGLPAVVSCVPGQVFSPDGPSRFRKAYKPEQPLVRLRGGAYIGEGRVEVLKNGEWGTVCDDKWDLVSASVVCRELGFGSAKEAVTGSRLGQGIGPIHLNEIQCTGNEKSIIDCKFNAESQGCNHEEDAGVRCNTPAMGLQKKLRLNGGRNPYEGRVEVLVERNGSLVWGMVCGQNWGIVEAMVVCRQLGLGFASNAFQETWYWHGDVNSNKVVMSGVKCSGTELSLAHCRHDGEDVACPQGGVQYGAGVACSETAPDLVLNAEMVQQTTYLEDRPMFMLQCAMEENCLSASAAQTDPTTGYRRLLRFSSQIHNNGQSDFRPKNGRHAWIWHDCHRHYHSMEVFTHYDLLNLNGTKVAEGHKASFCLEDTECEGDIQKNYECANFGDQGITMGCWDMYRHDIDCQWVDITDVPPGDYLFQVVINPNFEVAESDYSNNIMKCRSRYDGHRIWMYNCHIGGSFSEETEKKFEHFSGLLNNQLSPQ
Protocol: (§1) LOX was extracted from pig skin by previously described methods (Shackleton and Hulmes, 1990). LOXL2 and LOXL3 were obtained from R&D Systems/Bio-techne. The Promega ROS Glo assay kit (G8821) was used to assess enzyme activity. Overall, test compound was added to either 384 well assay plates (Greiner) using a Labcyte Echo™ Acoustic Handler or to 96 well plates for a final assay concentration of 100, 30, 10, 3, 1, 0.3, 0.1, 0.03, 0.01 and 0.003 μM final assay concentration. Enzymes were diluted according to specific pre-determined activity in assay buffer (100 mM CHES, pH 9, 0.05% (w/v) pluronic F-127, 0.5% (w/v) BSA, 1 mM MgCl2, 1 M urea, 100 mM NaCl) and added to the plate. For LOXL2, the mixture was incubated for 20 min, 1 h or 20 h; for LOX and LOXL3, incubation time was 1 h. Cadaverine and H2O2 substrate were then added to each well (final assay concentration 19.56 mM and 25 μM respectively) and the plates were incubated for 1.5 h (for LOX) or 1 h (for LOXL2 and LOXL3) at room temperature. Finally, luciferin detection reagent was added and plates were incubated for 20 min at room temperature, protected from light. Luminescence was measured using a BMG LABTECH PHERAstar FS reader and resulting IC50 values were calculated using GraphPad Prism software.
In another setting, LOXL2 enzyme was diluted according to specific pre-determined activity in assay buffer (100 mM CHES, pH 9, 0.05% (w/v) pluronic F-127, 0.5% (w/v) BSA, 1 mM MgCl2, 1 M urea, 100 mM NaCl). Overall, 0.5 μl test compound was added to 40 μl assay buffer+LOXL2 at 100, 30, 10, 3, 1, 0.3, 0.1, 0.03, 0.01 and 0.003 μM (final concentration) in a 96-well white polystyrene, flat bottom plates (Fisher) and incubated for the indicated time at room temperature. 10 μl of assay buffer containing 97.8 mM cadaverine and 125 μM H2O2 substrate (final assay concentration 19.56 mM and 25 μM respectively) were added to each well and plates were incubated for 1 h at room temperature. Finally, 50 μl per well luciferin detection reagent was added and plates were incubated for 20 min at room temperature, protected from light. Luminescence was measured with an integration time of 500 ms per well using a SpectaMax M5 plate reader and resulting IC50 values were calculated using GraphPad Prism software.

LOX [2] = molecular target: T3, LOX (Sus scrofa, UniProt P45845); experiment: LOX isoform activity assay (ROS Glo), LOX; format: biochemical, pig; conditions: 1 h incubation with enzyme
T3 construct: LOX was extracted from pig skin by previously described methods; from tissue; host or cells: pig skin
T3 sequence (P45845 1-249): T1 sequence (P28301 163-411) with D20X, T21X, Y22X, N31Y, S80T, N142S, A188N, Q202K, T224S, D231E
Protocol: as §1

[3] = molecular target: T4, monoamine oxidase A (MAO-A) (Homo sapiens, UniProt P21397); experiment: Amine oxidase activity assay (MAO-Glo), MAO-A; format: biochemical
T4 construct: purchased Promega V1452
T4 sequence (P21397 1-527): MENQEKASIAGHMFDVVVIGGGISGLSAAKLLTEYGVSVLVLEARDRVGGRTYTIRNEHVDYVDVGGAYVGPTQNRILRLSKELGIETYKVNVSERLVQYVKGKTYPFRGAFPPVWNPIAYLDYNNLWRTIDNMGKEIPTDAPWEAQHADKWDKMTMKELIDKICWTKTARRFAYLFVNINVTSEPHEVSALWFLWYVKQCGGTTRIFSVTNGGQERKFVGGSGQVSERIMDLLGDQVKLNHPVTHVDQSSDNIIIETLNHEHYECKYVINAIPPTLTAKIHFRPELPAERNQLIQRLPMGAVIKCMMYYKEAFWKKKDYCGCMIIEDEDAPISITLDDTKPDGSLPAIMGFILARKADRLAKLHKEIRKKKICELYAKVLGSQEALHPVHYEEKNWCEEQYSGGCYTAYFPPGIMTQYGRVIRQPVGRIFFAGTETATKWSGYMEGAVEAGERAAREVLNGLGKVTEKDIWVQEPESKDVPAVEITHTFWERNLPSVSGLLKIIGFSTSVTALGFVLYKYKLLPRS
Protocol: (§2) The Promega MAO-Glo assay kit (V1402) was used to assess monoamine oxidase A (MAO-A) and monoamine oxidase B (MAO-B) activity. MAO substrate was prepared at 80 μM with the specific MAO-A/B reaction buffer. Overall, 0.5 μl test compound was added to 25 μl MAO substrate at 100, 30, 10, 3, 1, 0.3, 0.1, 0.03, 0.01 and 0.003 μM (final concentration) in a 96-well white, flat bottom plate. Overall, 25 μl of 1:520 dilution of MAO-A enzyme (Promega, V1452) or 25 μl of 1:52 dilution of MAO-B enzyme (Sigma, M7441) in specific MAO-A/B reaction buffer was added to each well (enzyme prepared at 2×final concentration) and plates were incubated for 1 h at room temperature. Finally, 50 μl per well luciferin detection reagent was added and plates were incubated for 20 min at room temperature, protected from light. Luminescence was measured with an integration time of 500 ms per well using a SpectaMax M5 plate reader and resulting IC50 values were calculated using GraphPad Prism software.
(§3) In another setting, the DAO and MAO assays were performed in 384-well plates (Greiner) and test compound was added using a Labcyte Echo™ Acoustic Handler for the same final concentrations as in the 96-well setting. Luminescence was measured with BMG LABTECH PHERAstar FS plate reader.

[4] = molecular target: T5, monoamine oxidase B (MAO-B) (Homo sapiens, UniProt P27338); experiment: Amine oxidase activity assay (MAO-Glo), MAO-B; format: biochemical
T5 construct: purchased Sigma M7441
T5 sequence (P27338 1-520): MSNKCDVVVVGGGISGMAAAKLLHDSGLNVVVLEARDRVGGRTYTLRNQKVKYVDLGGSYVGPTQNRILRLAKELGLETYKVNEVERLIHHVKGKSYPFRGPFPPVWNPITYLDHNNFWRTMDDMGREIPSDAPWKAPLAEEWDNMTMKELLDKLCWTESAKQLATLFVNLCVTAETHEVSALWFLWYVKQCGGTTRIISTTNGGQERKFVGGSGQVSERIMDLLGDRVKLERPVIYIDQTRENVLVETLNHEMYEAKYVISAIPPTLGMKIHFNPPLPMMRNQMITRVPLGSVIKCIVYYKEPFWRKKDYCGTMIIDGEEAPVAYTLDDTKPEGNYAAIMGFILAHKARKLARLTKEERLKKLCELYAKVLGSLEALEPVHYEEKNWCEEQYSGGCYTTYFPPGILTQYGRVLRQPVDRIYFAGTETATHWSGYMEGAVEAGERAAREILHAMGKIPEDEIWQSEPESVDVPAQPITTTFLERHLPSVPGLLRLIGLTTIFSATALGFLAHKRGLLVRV
Protocol: as §2, §3

[5] = 20 hr incubation with enzyme; read-out: LOXL2 IC50 c) 20 hr

Q: For CCOc1ccc(N2C[C@H]3CN(C(=O)C(CC(C)C)S(=O)(=O)CCN)C[C@@H]2C(C)(C)C3)cc1 (stereo partly drawn) [Example 40, 2-((2-aminoethyl)sulfonyl)-1-((1S,5S)-6-(4-ethoxyphenyl)-9,9-dimethyl-3,6-diazabicyclo[3.2.2]nonan-3-yl)-4-methylpentan-1-one], which inhibition at 10 µM (LOX [1]; 10 uM, DMSO = 0%, BAPN 1 mM = 100% inhibition, inhibitor added 30 min prior to imaging, read-out: Cyst LOX @ 10 uM (% inhibition)) is on record?
A: The inhibition at 10 µM was 79%.

Q: And the IC50 (LOXL2; 1 hr incubation with enzyme; read-out: LOXL2 IC50 b) 1 hr)?
A: Its IC50 is 1100 nM.

Q: Which inhibition at 2.5 µM (LOX [1]) does the source give for CCOc1ccc(N2C[C@H]3CN(C(=O)C(F)S(=O)(=O)CCN)C[C@@H]2C(C)(C)C3)cc1 (stereo partly drawn) [Example 15, 2-((2-aminoethyl)sulfonyl)-1-((1 S,5S)-6-(4-ethoxyphenyl)-9,9-dimethyl-3,6-diazabicyclo[3.2.2]nonan-3-yl)-2-fluoroethan-1-one] here?
A: The inhibition at 2.5 µM was 78%.

Q: And the IC50 (LOX [2])?
A: Its IC50 is 2200 nM.

Q: What about the IC50 (LOXL2; [5]) of the same molecule?
A: The IC50 was 120 nM.

Q: For CCOc1ccc(N2C[C@H]3CN(C(=O)c4cccc(S(=O)(=O)CCN)c4)C[C@@H]2C(C)(C)C3)cc1 [Example 32, (3-((2-aminoethyl)sulfonyl)phenyl)((1S,5S)-6-(4-ethoxyphenyl)-9,9-dimethyl-3,6-diazabicyclo[3.2.2]nonan-3-yl)methanone], which IC50 (LOX [2]) is on record?
A: Its IC50 is 23000 nM.

Q: What about the IC50 (LOXL2; [5]) of the same molecule?
A: The IC50 was 3000 nM.

Q: And the IC50 [3]?
A: Its IC50 is over 100000 nM.

Q: What about the IC50 [4] of the same molecule?
A: The IC50 was over 100000 nM.

Q: CCOc1ccc(N2C[C@@H]3C[C@H]2CN3C(=O)C(F)S(=O)(=O)CCN)cc1 (mixture of isomers) [Example 16, 2-((2-aminoethyl)-sulfonyl)-1-((1S,4S)-5-(4-ethoxyphenyl)-2,5-diazabicyclo-[2.2.1]heptan-2-yl)-2-fluoroethan-1-one] was tested. Which inhibition at 2.5 µM (LOX [1]; 2.5 uM (stated in cell), DMSO = 0%, BAPN 1 mM = 100% inhibition) did it give?
A: The inhibition at 2.5 µM was 73%.

Q: What about the IC50 (LOXL2; [5]) of the same molecule?
A: The IC50 was 140 nM.
